Where a name gives a salt, the structure may show the parent alone. Read-outs that look alike come from different tables or passages of the source.
Columns and labels:
[1] = tested on: HMVEC cells stimulated with b-FGF; test: b-FGF driven HMVEC proliferation screen; type: cell-based
Procedure: (§1) HMVEC cells were plated on collagen-coated plates at 2500 cells/well for 24 hours. Various concentrations of test compounds were then added to duplicate plates. […] Anti-FGF antibody (final concentration of 5 μg/mL) was added to four control wells as a standard inhibitor. At the same time the compounds were added, a T-zero plate was generated (Alamar blue was added to a plate and read after three hours). The plates with the compounds were incubated for one hour at 37° C., 5% carbon dioxide. At this point, b-FGF was added (final concentration of 2.5 ng/mL). Tween-20 (10 μL) was added to four additional control wells to represent total death and the plates were returned to the carbon dioxide incubator for 6 days.

[2] = tested on: HMVEC cells stimulated with VEGF 165; test: VEGF driven HMVEC proliferation screen; type: cell-based
Procedure: as §1
The assay was run identically using VEGF in place of b-FGF. The final concentration of VEGF 165, in this mode, was 10 ng/mL. The control inhibitor was anti-VEGF antibody (final concentration of […]). All other conditions were the same.

[3] = tested on: Primary Human Dermal Fibroblasts; test: in vitro; details: read-out: D. Fibroblast LC50, 6 days, Alamar blue
Procedure: In parallel with the VEGF and FGF screens, a normal cell toxicity assay was run. Primary Human Dermal Fibroblasts (Clonetics) were plated at 5000 cells/well. After 24 hours various concentrations of test compounds, were added in duplicate plates and 10% Tween-20 was added to four control wells to represent total death. At the same time a T-zero plate was generated. The plates were returned to the carbon dioxide incubator and on day 6 Alamar blue was added and the plates read after 3 hours.
Using a T-zero plate allows the observation of compounds that cause the cells to become static as well as inhibit growth.

[4] = Homo sapiens, HMVEC, 144 h, b-FGF 2.5 ng/mL, 6 days, Alamar blue, read-out: b-FGF LC50
[5] = Homo sapiens, HMVEC, 144 h, VEGF 165 10 ng/mL, 6 days, Alamar blue, read-out: VEGF LC50
[6] = b-FGF 2.5 ng/mL, 6 days, Alamar blue, read-out: b-FGF LC50
[7] = VEGF 165 10 ng/mL, 6 days, Alamar blue, read-out: VEGF LC50

Compound	CC50 [3] [nM]	CC50 [1] [nM]	CC50 [2] [nM]	also measured
O=C(Nc1cccc2cccnc12)c1ncccc1OCCN1CCOCC1 [Compound 104]	–	–	–	CC50 [1, 4]: 1400 nM; CC50 [2, 5]: 810 nM
CN(C)c1ccccc1NC(=O)c1ccccn1 [Compound 80]	> 10000	830	770	–
CN(C)CCCOc1cccnc1C(=O)Nc1cccc2cccnc12 [Compound 49]	> 10000	–	–	CC50 [1, 6]: 2500 nM; CC50 [2, 7]: 1700 nM
COc1cc(NC(=O)c2ccccn2)c2ncccc2c1 [Compound 2]	3400	31	38	–
O=C(Nc1ccc(Cl)c2cccnc12)c1ccccn1 [Compound 18]	> 10000	200	170	–
CCOc1cc(NC(=O)c2ccccn2)c2ncccc2c1 [Compound 8]	> 10000	81	96	–
Cc1ccc(NC(=O)c2ccccn2)c2ncccc12 [Compound 14]	> 10000	170	130	–
COc1cc(NS(=O)(=O)c2ccccn2)c2ncccc2c1 [Compound 72]	> 10000	240	170	–
O=C(Nc1cccc2cccnc12)c1cc(N2CCSCC2)ccn1 [Compound 44]	> 10000	–	–	CC50 [1, 6]: 250 nM; CC50 [2, 7]: 180 nM
COc1ccnc(C(=O)Nc2cccc3cccnc23)c1 [Compound 29]	> 10000	69	60	–
CN1CCN(c2ccnc(C(=O)Nc3cccc4cccnc34)c2)CC1 [Compound 100, 4-(4-methylpiperazin-1-yl)pyridine-2-carboxylic acid quinolin-8-ylamide trifluoroacetate salt]	–	–	–	CC50 ([3]; trifluoroacetate salt): 2900 nM; CC50 [1, 4]: 19 nM; CC50 [2, 5]: 18 nM
CCN1CCN(c2ccnc(C(=O)Nc3cccc4cccnc34)c2)CC1 [Compound 41]	4200	18	17	–
CN1CCCN(c2ccnc(C(=O)Nc3cccc4cccnc34)c2)CC1 [Compound 38]	> 10000	25	26	–
O=C(Nc1cccc2cccnc12)c1cc(N2CCC(N3CCCC3)CC2)ccn1 [Compound 42]	3600	–	–	CC50 [1, 6]: 33 nM; CC50 [2, 7]: 42 nM
O=C(Nc1cccc2cccnc12)c1cc2ccccc2cn1 [Compound 28]	> 10000	610	480	–
O=C(Nc1cccc2cccnc12)c1cc(N2CCOCC2)ccn1 [Compound 30]	8000	26	22	–
O=C(Nc1cc(C(F)(F)F)cc2cccnc12)c1ccccn1 [Compound 5]	> 10000	120	160	–
CCCN(C)c1ccccc1NC(=O)c1ccccn1 [Compound 82]	> 10000	1300	2000	–
CN1CCC[C@H]1C(=O)Nc1cccc2cccnc12 [Compound 108, (S)-1-methyl-pyrrolidine-2-carboxylic acid quinolin-8-ylamide L-tartrate salt]	> 10000	–	–	CC50 ([1]; b-FGF 2.5 ng/mL, 6 days, Alamar blue, L-tartrate salt, read-out: b-FGF LC50): 220 nM; CC50 ([2]; VEGF 165 10 ng/mL, 6 days, Alamar blue, L-tartrate salt, read-out: VEGF LC50): 290 nM
CCN(C)c1ccccc1NC(=O)c1ccccn1 [Compound 81]	> 10000	500	620	–
O=C(Nc1cc(N2CCOCC2)cc2cccnc12)c1ccccn1 [Compound 13]	> 10000	26	25	–
Cc1cccc(C(=O)Nc2cccc3cccnc23)n1 [Compound 25]	> 10000	2300	2500	–
O=C(Nc1cccc2nccnc12)c1ccccn1 [Compound 77]	> 10000	–	–	CC50 [1, 6]: 180 nM; CC50 [2, 7]: 170 nM
O=C(Nc1cccc2cccnc12)c1ccc(-c2ccccc2)cn1 [Compound 33]	> 10000	–	–	CC50 [1, 6]: 6100 nM; CC50 [2, 7]: 4700 nM
O=C(Nc1cccc2cccnc12)c1cc(N2CCN(CCO)CC2)ccn1 [Compound 39]	> 10000	650	220	–
Cc1ccc2cccc(NC(=O)c3ccccn3)c2n1 [Compound 6]	> 10000	3200	3900	–
O=C(Nc1cccc2cccnc12)c1cc(-c2ccccc2)ccn1 [Compound 27]	> 10000	–	–	CC50 [1, 6]: 950 nM; CC50 [2, 7]: 640 nM
O=C(Nc1cccc2cccnc12)c1cc(N2CCC(O)CC2)ccn1 [Compound 37]	> 10000	310	290	–

Compound	CC50 [3] [nM]	CC50 [1] [nM]	CC50 [2] [nM]	also measured
O=S(=O)(Nc1cc(Cl)c(Cl)c2cccnc12)c1ccccn1 [Compound 73]	> 10000	1000	1100	–
CN1CCC[C@H]1C(=O)Nc1cccc2cccnc12 [Compound 58, (S)-1-methyl-pyrrolidine-2-carboxylic acid quinolin-8-ylamide]	> 10000	–	–	CC50 [1, 6]: 170 nM; CC50 [2, 7]: 190 nM
Cc1cc(NC(=O)c2ccccn2)c2ncccc2c1 [Compound 11]	> 10000	68	73	–
O=C(Nc1cccc2cccnc12)c1cc(N2CCCCC2)ccn1 [Compound 43]	> 10000	–	–	CC50 [1, 6]: 220 nM; CC50 [2, 7]: 400 nM
O=C(Nc1cc(OCCN2CCOCC2)cc2cccnc12)c1ccccn1 [Compound 99]	–	–	–	CC50 [1, 4]: 31 nM; CC50 [2, 5]: 28 nM
CC(C)N(C)c1ccccc1NC(=O)c1ccccn1 [Compound 83]	> 10000	6500	9600	–
O=C(Nc1cccc2cccnc12)c1ccccn1 [Compound 1]	–	61	65	–
Cc1cc(NC(=O)c2ccccn2)c2ncccc2c1C [Compound 17]	> 10000	130	160	–
COc1cc(NC(=O)c2cc(N3CCN(C)CC3)ccn2)c2ncccc2c1 [Compound 54]	> 10000	–	–	CC50 [1, 6]: 20 nM; CC50 [2, 7]: 15 nM
COc1ccc(NC(=O)c2ccccn2)c2ncccc12 [Compound 3]	> 10000	–	–	CC50 [1, 6]: 110 nM; CC50 [2, 7]: 120 nM
CCN(CC)c1ccccc1NC(=O)c1ccccn1 [Compound 84]	> 10000	1500	1600	–
CCCOc1cccnc1C(=O)Nc1cccc2cccnc12 [Compound 23]	> 10000	210	180	–
O=C(Nc1cc(OCCN2CCOCC2)cc2cccnc12)c1ccccn1 [Compound 20]	–	31	30	–
O=C(Nc1cccc2cccnc12)c1ncccc1O [Compound 46]	> 10000	66	51	–
O=C(Nc1ccccc1N1CCCC1)c1ccccn1 [Compound 79]	> 10000	6500	8000	–
O=C(Nc1cccc2cccnc12)c1cc(NCCN2CCOCC2)ccn1 [Compound 35]	> 10000	160	120	–
CCN(CCN(C)C)c1ccnc(C(=O)Nc2cccc3cccnc23)c1 [Compound 40]	7600	21	16	–
CCN(C)c1c(NC(=O)c2ccccn2)ccc(Cl)c1Cl [Compound 92]	> 10000	7900	8200	–
O=C(Nc1cccc2cc(Cl)cnc12)c1ccccn1 [Compound 7]	> 10000	320	310	–
O=C(Nc1cccc2cccnc12)c1cccc(Br)n1 [Compound 26]	> 10000	120	86	–
O=C(Nc1cc(Cl)c(Cl)c2cccnc12)c1ccccn1 [Compound 15]	> 10000	220	210	–
CN1CCN(c2ccc(NC(=O)c3ccccn3)c3ncccc23)CC1 [Compound 19]	> 10000	–	–	CC50 [1, 6]: 28 nM; CC50 [2, 7]: 28 nM
O=C(Nc1cccc2cccnc12)c1cc(SCc2ccccc2)ccn1 [Compound 45]	> 10000	–	–	CC50 [1, 6]: 190 nM; CC50 [2, 7]: 61 nM
O=C(Nc1cccc2cccnc12)c1cc(N2CCN(Cc3ccccc3)CC2)ccn1 [Compound 36]	> 10000	–	–	CC50 [1, 6]: 900 nM; CC50 [2, 7]: 840 nM
O=C(Nc1cc(Cl)cc2cccnc12)c1ccccn1 [Compound 4]	> 10000	110	120	–
CN1CCN(c2ccnc(C(=O)Nc3cccc4cccnc34)c2)CC1 [Compound 34, 4-(4-methylpiperazin-1-yl)pyridine-2-carboxylic acid quinolin-8-ylamide]	> 10000	–	–	CC50 [1, 6]: 18 nM; CC50 [2, 7]: 13 nM
O=C(Nc1cccc2cccnc12)c1ncccc1OCCN1CCOCC1 [Compound 48]	–	1600	950	–

Source: patent US20070254894A1, “Novel small molecules with selective cytotoxicity against human microvascular endothelial cell proliferation” (priority 2006, published 2007)
